Data taken from US4481194A, “Des-proline-des-glycine vasopressin antagonists” (SmithKline Beckman Corporation, priority 1984, dated 1984).
Numbered stars: 1 amine (or outer) side, 2 acyl side, 3 side chain; on linkers, the order of the positions; unused ones are H or OH. Bridge positions count the residues as written; N and C are the ends. Square brackets hold non-standard residues; d marks the D form. Peptide text beside a SMILES is read from it. X1 = O=C(CC1(S[*:2])CCCCC1)[*:1]; Abu = CC[C@H](N)C(=O)O

Columns and labels:
[1] = target: T1, vasopressin stimulated adenylate cyclase (Sus scrofa, UniProt P32307); experiment: Vasopressin stimulated adenylate cyclase activity in kidney medullary membrane; type: biochemical; conditions: In Vitro (Pig); antagonism of vasopressin stimulated adenylate cyclase, medullary tissue
T1 construct: in the medullary tissue of hog or human kidneys; from tissue; host or cells: kidney medullary membranes (hog or human)
Protocol: In the test procedure for assay of adenylate cyclase activity, the amount of ^32 P/cAMP formed in the absence of medullary membrane is determined (blank). The blank value is subtracted from all experimental data. The compound is tested for its effect on basal adenylate cyclase activity and/or on vasopressin stimulated activity. Each determination is carried out in triplicate. The Ka value is derived from a Lineweaver-Burkeplot. Rel. Vmax =(Vmax drug/Vmax vasopressin)×100. Ki =I/[Ka'/Ka)-1] where I is the concentration of the antagonist, and Ka' and Ka are the concentrations of vasopressin required to give half maximal activity of adenylate cyclase in the presence and absence of antagonist, respectively.

[2] = target: T2, vasopressin receptors [V2 -receptors] (Sus scrofa, UniProt P32307); experiment: 3H-vasopressin binding assay, hog kidney membranes; conditions: In Vitro (Pig); competitive inhibition of 3H-vasopressin binding; read-out: BB
T2 construct: average KD value determined on 3 preparations of hog kidney membranes; from tissue; host or cells: hog kidney medullary membranes
Protocol: In the test procedure for binding assays, the amount of ^3 H-vasopressin bound in the absence and in the presence of an excess of vasopressin (7.5×10^-6 M) is measured in triplicate. These values represent total and non-specific binding, respectively.

hydropenic rat = experiment: Hydropenic rat screen (anti-ADH activity in vivo); conditions: estimated dose of peptide delivered ip which reduces Uosm from hydropenic levels to 300 mOsmoles/kg H2O
Protocol: Antagonistic activity toward the natural antidiuretic hormone (anti-ADH activity) is determined, in vitro, in the medullary tissue of hog or human kidneys and, in vivo, in the hydropenic rat. The in vitro assay procedures for vasopressin stimulated adenylate cyclase activation or vasopression binding activity are described by F. Stassen et al., J. Pharmacology and Experimental Therapeutics, 223, 50-54 (1982).
The assay for anti-ADH activity is the hydropenic rat protocol is described below:
Food and water are removed from male rats approximately 18 hours prior to testing. Animals are housed 4 per metabolism cage. At 0 hour, the test compound is administered intraperitoneally to the test group and an equivalent volume of vehicle is administered to both control groups (fasted and non-fasted). Urine volume and osmolality are measured every hour for 4 hours. Test values are recorded as ml of urine excreted (cumulative), mEq/rat electrolyte excreted, mg/rat urea excreted, and osmolality in milli-Osmoles/kg H2 O. A tolerance test is used to determine significance. ED300 is defined as the dose of compound (μg/kg) required to lower urine osmolality to 300 m-Osmoles/kg.

T1 sequence (P32307 whole entry): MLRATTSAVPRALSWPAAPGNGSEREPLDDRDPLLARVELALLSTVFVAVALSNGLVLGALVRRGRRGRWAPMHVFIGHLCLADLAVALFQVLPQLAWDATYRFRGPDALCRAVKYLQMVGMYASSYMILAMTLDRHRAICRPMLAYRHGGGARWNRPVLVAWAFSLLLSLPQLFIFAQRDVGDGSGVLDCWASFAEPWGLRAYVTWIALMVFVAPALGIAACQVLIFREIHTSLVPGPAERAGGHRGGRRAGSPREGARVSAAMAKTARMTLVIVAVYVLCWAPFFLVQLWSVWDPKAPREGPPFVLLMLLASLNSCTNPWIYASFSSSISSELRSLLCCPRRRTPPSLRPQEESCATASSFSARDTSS
T2 sequence (P32307 whole entry): as above

Row | Ki [1] [nM] | Ki [2] [nM] | SMILES | ED300 (hydropenic rat) [mg/kg]
1 | 2.5 | 9000 | CCOc1ccc(C[C@H]2NC(=O)CC3(CCCCC3)SSC[C@@H](C(=O)N[C@@H](CCCNC(=N)N)C(N)=O)NC(=O)[C@H](CC(N)=O)NC(=O)[C@H](C(C)C)NC(=O)[C@H](Cc3ccccc3)NC2=O)cc1 [A] ([dY](Et)FVNCR-NH2; linker N-5 via X1) | –
2 | 6.2 | – | CCOc1ccc(C[C@H]2NC(=O)CC3(CCCCC3)SSC[C@@H](C(=O)N[C@@H](CCCNC(=N)N)C(N)=O)NC(=O)[C@H](CC(N)=O)NC(=O)[C@H](CC)NC(=O)[C@H](Cc3ccccc3)NC2=O)cc1 [B, 1(mercapto-β,cyclopentamethylenepropionic acid)2-(O--ethylD-tyrosine)-4-aminobutyric acid7-desproline-8-arginine-9-desglycinevasopressin] ([dY](Et)F[Abu]NCR-NH2; linker N-5 via X1) | 0.1218

Row | SMILES | Ki [1] [nM] | Ki [2] [nM] | ED300 (hydropenic rat) [mg/kg]
3 | CCOc1ccc(C[C@H]2NC(=O)CC3(CCCCC3)SSC[C@@H](C(=O)N3CCC[C@H]3C(=O)N[C@@H](CCCNC(=N)N)C(=O)NCC(N)=O)NC(=O)[C@H](CC(N)=O)NC(=O)[C@H](C(C)C)NC(=O)[C@H](Cc3ccccc3)NC2=O)cc1 [C, [mercapto-β,cyclopentamethylenepropionic acid)2-(O--ethylD-tyrosine)-4-valine-8-argininevasopressin, reference compound] ([dY](Et)FVNCPRG-NH2; linker N-5 via X1 (inferred); C-terminus assumed) | 9.8 | – | 0.011
